Test results published in US8735584B2 (Merck Patent GmbH, priority 2008, dated 2014).
pIC50: −log10 of the molar value.

What was measured:
Format in all cases: biochemical
AurA = target: T1, AurA (Homo sapiens, UniProt O14965); test: Desktop Profiler kinase panel, AurA; settings: for inhibition at 10 µM: 10 micromolar concentration of the compound, read-out: Percent Inhibition AurA; for inhibition at 1 µM: 1 micromolar concentration of the compound
T1 construct: purchased Caliper Life Sciences
T1 sequence (O14965 1-403): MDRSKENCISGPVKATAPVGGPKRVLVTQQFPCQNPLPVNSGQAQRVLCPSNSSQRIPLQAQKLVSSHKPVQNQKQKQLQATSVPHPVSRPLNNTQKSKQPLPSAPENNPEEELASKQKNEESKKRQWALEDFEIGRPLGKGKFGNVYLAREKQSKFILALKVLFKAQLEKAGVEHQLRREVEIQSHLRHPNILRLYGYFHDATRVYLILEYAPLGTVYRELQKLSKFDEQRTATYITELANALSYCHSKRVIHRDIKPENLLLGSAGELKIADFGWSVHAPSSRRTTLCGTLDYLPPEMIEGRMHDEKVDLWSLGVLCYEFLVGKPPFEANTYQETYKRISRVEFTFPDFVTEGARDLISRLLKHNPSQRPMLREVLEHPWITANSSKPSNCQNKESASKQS
Description: (§1) The Aurora assays described here are performed on two Caliper Life Sciences systems: the LC3000 and the Desktop Profiler. These provide data on enzyme activity via measurement of the relative amounts of phosphorylated or unphosphorylated fluorescently labelled substrate peptide at the end of an enzymatic reaction. These different states of peptide are resolved by applying a potential difference across the sample. The presence of the charged phosphate group on the product (as opposed to the substrate) causes a different peptide mobility between the two peptides. This is visualized by excitation of the fluorescent label on the substrate and product peptides and represented as peaks within the analysis software.
(§2) The Desktop Profiler utilizes the same principle as the LC3000 for calculating percentage conversion of a substrate to product. Caliper Life Sciences provides proprietary flash frozen pre-made 384 well plates containing selected kinases. Each column in the 384 well plate contains a particular selected kinase. A second plate, the ‘substrate plate’ contains a mix of fluorescently labeled peptide substrate and ATP. These are arranged in columns so that transfer for substrate plate to enzyme plate provides the correct enzyme with the correct substrate/ATP concentration. Compounds are added to a thawed enzyme plate in the desired format, in single concentrations. Reactions are initiated by transfer of the substrate/ATP mix from the substrate plate. The enzyme plate is incubated for 90 mins at 25 C. The reaction is stopped by addition of 70 ul of Stop Buffer (100 mM HEPES pH 7.5, 0.015% Brij-35, 10 mM EDTA (Sigma, E7889)).
(§3) Reading of the plate in the Profiler is identical to the LC3000, and the ratio between substrate and product peaks provides the activity of the enzyme in that well. This is best represented by a plate heat map which colors each well by percent inhibition as compared to positive and negative controls (no inhibitors and no ATP respectively).
(§4) In the following Tables 3a-4-b, which show the results of the desktop profiler measurements, “+” means 50-70% inhibition, “++” means 70-90% inhibition, and “+++” means >90% inhibition. The enzymes tested for profiling were ABL, AKT1, AKT2, AurA, CHK1, CHK2, CK1d, Erk1, Erk2, FYN, GSK3b, INSR, LCK, LYN, MAPKAPK2, MET, MSK1, p38a, PKA, PKCz, PKD2, PRAK, RSK1 and SRC.

FYN = target: T2, FYN (Homo sapiens, UniProt P06241); test: Desktop Profiler kinase panel, FYN; settings: for inhibition at 10 µM: 10 micromolar concentration of the compound, read-out: Percent Inhibition FYN; for inhibition at 1 µM: 1 micromolar concentration of the compound
T2 construct: purchased Caliper Life Sciences
T2 sequence (P06241 whole entry, species assumed): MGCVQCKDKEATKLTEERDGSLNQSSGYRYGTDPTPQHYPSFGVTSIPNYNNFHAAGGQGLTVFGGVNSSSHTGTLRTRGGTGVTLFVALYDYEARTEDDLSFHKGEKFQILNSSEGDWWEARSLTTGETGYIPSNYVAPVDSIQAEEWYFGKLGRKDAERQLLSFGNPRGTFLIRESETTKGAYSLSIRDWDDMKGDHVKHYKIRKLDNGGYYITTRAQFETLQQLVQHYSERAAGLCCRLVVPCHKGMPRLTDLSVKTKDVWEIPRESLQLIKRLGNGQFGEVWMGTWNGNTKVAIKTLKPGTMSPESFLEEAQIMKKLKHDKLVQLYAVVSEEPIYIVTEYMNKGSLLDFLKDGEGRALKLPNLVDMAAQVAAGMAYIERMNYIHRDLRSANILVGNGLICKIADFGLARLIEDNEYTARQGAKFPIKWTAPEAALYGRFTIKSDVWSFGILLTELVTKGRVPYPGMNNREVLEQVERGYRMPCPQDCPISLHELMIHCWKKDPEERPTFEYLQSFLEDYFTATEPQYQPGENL
Description: as §1, §2, §3, §4

ABL = target: T3, ABL (Homo sapiens, UniProt P00519); test: Desktop Profiler kinase panel, ABL; settings: for inhibition at 10 µM: 10 micromolar concentration of the compound, read-out: Percent Inhibition ABL; for inhibition at 1 µM: 1 micromolar concentration of the compound
T3 construct: purchased Caliper Life Sciences
T3 sequence (P00519 whole entry, species assumed): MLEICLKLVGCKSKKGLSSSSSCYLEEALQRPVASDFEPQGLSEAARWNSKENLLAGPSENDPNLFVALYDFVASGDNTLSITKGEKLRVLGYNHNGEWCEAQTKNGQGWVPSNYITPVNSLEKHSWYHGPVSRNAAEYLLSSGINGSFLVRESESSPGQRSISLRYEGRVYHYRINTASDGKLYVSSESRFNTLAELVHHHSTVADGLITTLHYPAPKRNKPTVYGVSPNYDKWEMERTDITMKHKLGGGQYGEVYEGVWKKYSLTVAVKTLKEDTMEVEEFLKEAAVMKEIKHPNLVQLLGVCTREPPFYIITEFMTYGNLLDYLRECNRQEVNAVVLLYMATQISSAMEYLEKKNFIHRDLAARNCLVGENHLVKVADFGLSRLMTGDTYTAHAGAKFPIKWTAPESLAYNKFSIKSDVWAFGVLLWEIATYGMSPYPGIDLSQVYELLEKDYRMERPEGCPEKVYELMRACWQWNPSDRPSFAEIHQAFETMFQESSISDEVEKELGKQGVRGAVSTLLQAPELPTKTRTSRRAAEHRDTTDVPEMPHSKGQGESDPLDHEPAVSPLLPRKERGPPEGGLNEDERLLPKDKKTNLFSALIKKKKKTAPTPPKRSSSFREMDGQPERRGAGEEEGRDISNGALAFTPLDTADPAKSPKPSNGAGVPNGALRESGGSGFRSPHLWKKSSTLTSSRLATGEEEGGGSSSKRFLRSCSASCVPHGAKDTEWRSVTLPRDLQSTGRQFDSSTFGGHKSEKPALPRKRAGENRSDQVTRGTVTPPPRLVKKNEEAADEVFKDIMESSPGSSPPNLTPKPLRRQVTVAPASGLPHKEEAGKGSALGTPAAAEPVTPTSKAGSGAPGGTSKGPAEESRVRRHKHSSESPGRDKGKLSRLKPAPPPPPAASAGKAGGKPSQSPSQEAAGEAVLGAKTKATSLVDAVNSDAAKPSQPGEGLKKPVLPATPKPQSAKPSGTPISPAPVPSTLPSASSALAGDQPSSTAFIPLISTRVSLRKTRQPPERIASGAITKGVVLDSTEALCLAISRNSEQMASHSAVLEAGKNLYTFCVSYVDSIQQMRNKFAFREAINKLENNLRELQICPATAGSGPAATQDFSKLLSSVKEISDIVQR
Description: as §1, §2, §3, §4

LCK = target: T4, LCK (Homo sapiens, UniProt P06239); test: Desktop Profiler kinase panel, LCK; settings: for inhibition at 10 µM: 10 micromolar concentration of the compound, read-out: Percent Inhibition LCK
T4 construct: purchased Caliper Life Sciences
T4 sequence (P06239 whole entry, species assumed): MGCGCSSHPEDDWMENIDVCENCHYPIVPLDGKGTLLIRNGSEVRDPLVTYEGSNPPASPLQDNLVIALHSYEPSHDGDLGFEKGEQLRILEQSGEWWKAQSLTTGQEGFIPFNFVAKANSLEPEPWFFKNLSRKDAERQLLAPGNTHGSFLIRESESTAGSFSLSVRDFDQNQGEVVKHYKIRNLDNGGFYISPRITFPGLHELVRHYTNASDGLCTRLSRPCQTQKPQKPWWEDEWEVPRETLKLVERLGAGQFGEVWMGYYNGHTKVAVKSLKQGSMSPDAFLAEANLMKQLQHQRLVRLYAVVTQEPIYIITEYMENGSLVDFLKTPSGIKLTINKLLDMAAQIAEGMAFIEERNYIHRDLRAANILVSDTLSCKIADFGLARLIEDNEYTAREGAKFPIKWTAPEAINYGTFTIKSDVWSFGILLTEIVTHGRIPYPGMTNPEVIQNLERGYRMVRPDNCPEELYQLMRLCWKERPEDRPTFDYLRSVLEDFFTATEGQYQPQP
Description: as §1, §2, §3, §4

SRC = target: T5, SRC (Homo sapiens, UniProt P12931); test: Desktop Profiler kinase panel, SRC; settings: for inhibition at 10 µM: 10 micromolar concentration of the compound, read-out: Percent Inhibition SRC; for inhibition at 1 µM: 1 micromolar concentration of the compound
T5 construct: purchased Caliper Life Sciences
T5 sequence (P12931 whole entry, species assumed): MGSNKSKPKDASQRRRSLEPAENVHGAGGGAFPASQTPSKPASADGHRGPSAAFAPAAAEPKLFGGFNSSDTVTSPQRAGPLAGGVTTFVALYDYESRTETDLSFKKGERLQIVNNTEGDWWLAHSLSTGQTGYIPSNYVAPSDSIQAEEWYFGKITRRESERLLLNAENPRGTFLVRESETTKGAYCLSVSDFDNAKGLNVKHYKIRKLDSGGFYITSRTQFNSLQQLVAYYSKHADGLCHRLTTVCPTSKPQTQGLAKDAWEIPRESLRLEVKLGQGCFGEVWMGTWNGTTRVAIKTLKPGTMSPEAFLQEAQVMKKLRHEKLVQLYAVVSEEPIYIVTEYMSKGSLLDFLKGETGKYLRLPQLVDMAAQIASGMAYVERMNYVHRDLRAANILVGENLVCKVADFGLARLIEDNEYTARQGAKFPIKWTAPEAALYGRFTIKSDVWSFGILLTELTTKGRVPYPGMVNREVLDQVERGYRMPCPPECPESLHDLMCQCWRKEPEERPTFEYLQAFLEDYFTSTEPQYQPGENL
Description: as §1, §2, §3, §4

LYN = target: T6, LYN (Homo sapiens, UniProt P07948); test: Desktop Profiler kinase panel, LYN; settings: for inhibition at 10 µM: 10 micromolar concentration of the compound, read-out: Percent Inhibition LYN; for inhibition at 1 µM: 1 micromolar concentration of the compound
T6 construct: purchased Caliper Life Sciences
T6 sequence (P07948 whole entry, species assumed): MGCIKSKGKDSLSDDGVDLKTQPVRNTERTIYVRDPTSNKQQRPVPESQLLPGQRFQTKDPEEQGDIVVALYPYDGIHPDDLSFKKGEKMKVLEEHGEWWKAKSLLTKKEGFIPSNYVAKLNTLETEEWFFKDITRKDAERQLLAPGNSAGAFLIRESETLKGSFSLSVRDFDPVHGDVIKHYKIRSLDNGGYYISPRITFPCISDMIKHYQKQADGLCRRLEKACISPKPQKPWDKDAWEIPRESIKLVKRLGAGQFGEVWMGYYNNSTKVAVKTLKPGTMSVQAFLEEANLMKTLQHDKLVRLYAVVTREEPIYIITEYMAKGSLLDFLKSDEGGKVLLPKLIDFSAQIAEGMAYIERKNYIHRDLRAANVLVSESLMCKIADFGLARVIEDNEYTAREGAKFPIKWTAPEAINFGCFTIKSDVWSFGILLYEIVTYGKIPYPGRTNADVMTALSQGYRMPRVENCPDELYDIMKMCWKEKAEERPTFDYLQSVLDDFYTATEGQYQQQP
Description: as §1, §2, §3, §4

GST-Aurora A = target: T7, GST-Aurora A (Homo sapiens, UniProt O14965); test: Aurora A IC50, Caliper LC3000 mobility shift assay; settings: LC3000 method; 15 uM ATP (the KM value); read-out: Aurora Kinase A Activity (IC50)
T7 construct: N-terminal GST fusion with full length Aurora A (1-403 amino acids); purchased Carna Biosciences 05-101
T7 sequence (O14965 1-403): T1 sequence (O14965 1-403)
Procedure, shortened: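 GST-tagged full-length Aurora A (0.067 ng/ul) with 15 uM ATP (KM) and 1 uM FITC-LRRASLG peptide in 100 mM HEPES pH 7.5, 1 mM MgCl2, 1 mM DTT, Brij-35; 90 min at 25 C, EDTA stop. Off-chip mobility shift read of substrate-to-product conversion; IC50 from sigmoidal dose-response.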

CHK2 = target: T8, CHK2 (Homo sapiens, UniProt O96017); test: Desktop Profiler kinase panel, CHK2; settings: for inhibition at 10 µM: 10 micromolar concentration of the compound, read-out: Percent Inhibition CHK2
T8 construct: purchased Caliper Life Sciences
T8 sequence (O96017 whole entry, species assumed): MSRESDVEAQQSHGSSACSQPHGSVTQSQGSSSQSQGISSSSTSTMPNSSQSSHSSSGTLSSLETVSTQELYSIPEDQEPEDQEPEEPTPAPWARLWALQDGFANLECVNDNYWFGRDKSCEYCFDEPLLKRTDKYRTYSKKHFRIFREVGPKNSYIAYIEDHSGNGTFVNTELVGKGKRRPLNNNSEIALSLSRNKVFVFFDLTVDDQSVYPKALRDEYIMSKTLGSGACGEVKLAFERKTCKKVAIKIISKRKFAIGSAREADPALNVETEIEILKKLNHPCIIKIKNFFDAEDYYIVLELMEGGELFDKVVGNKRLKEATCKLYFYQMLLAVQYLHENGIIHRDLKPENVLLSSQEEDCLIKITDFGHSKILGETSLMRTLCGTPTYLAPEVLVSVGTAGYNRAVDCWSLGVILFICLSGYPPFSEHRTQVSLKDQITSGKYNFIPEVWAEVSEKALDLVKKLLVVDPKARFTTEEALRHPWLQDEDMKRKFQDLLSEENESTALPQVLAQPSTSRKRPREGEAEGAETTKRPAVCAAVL
Description: as §1, §2, §3, §4

CK1d = target: T9, CK1d (Homo sapiens, UniProt P48730); test: Desktop Profiler kinase panel, CK1d; settings: 10 micromolar concentration of the compound; read-out: Percent Inhibition CK1d
T9 construct: purchased Caliper Life Sciences
T9 sequence (P48730 whole entry): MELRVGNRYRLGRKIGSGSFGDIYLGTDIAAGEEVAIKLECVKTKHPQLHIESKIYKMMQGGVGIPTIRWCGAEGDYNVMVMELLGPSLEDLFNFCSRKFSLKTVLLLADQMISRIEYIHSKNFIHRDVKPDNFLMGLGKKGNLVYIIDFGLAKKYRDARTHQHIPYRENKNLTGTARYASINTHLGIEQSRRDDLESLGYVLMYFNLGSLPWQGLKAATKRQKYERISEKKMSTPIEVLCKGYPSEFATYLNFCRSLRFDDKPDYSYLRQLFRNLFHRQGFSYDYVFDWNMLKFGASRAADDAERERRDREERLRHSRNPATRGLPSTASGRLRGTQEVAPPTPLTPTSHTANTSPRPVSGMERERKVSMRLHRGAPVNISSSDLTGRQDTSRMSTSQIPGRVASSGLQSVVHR
Description: as §1, §2, §3, §4

[1] = 1 micromolar concentration of the compound

inhibition at 10 µM (AurA)	inhibition at 10 µM (FYN)	inhibition at 10 µM (SRC)	inhibition at 1 µM (AurA)	pIC50 (GST-Aurora A)	SMILES	other results
50 to 70%					O=c1[nH]c2ncccc2c2cc(Cl)ccc12 [Example 6, 9-Chloro-5H-benzo[c][1,8]naphthyridin-6-one]	
50 to 70%					O=c1[nH]c2ncc(Cl)cc2c2ccccc12 [Example 9, 2-Chloro-5H-benzo[c][1,8]naphthyridin-6-one]	
	50 to 70%				O=c1[nH]c2ncc(Nc3ccccc3)cc2c2ccccc12 [Example 12, 2-Phenylamino-5H-benzo[c][1,8]naphthyridin-6-one]	inhibition at 10 µM (ABL): 70 to 90%
	> 90%	70 to 90%			O=c1[nH]c2ncc(NCc3ccccc3)cc2c2ccccc12 [Example 13, 2-Benzylamino-5H-benzo[c][1,8]naphthyridin-6-one]	inhibition at 10 µM (LCK): 50 to 70%; inhibition at 10 µM (LYN): 70 to 90%; inhibition at 10 µM (ABL): 50 to 70%
			70 to 90%	< 7.00	O=c1[nH]c2ncccc2c2cc(NCc3ccccc3)ccc12 [Example 25, 9-Benzylamino-5H-benzo[c][1,8]naphthyridin-6-one]	
70 to 90%					O=c1[nH]c2ncccc2c2cc(N3CCOCC3)ccc12 [Example 26, 9-Morpholin-4-yl-5H-benzo[c][1,8]naphthyridin-6-one]	inhibition at 10 µM (CHK2): 50 to 70%
70 to 90%					COCCNc1ccc2c(=O)[nH]c3ncccc3c2c1 [Example 27, 9-(2-Methoxy-ethylamino)-5H-benzo[c][1,8]naphthyridin-6-one]	inhibition at 10 µM (CHK2): 50 to 70%
70 to 90%			50 to 70%	< 7.00	COc1ccc(Nc2ccc3c(=O)[nH]c4ncccc4c3c2)cc1 [Example 29, 9-(4-Methoxy-phenylamino)-5H-benzo[c][1,8]naphthyridin-6-one]	
> 90%	50 to 70%	50 to 70%	70 to 90%	< 7.00	COc1ccccc1Nc1ccc2c(=O)[nH]c3ncccc3c2c1 [Example 30, 9-(2-Methoxy-phenylamino)-5H-benzo[c][1,8]naphthyridin-6-one]	inhibition at 10 µM (LYN): 70 to 90%; inhibition at 10 µM (ABL): 50 to 70%
70 to 90%			50 to 70%		COc1ccc(CNc2ccc3c(=O)[nH]c4ncccc4c3c2)cc1 [Example 33, 9-(4-Methoxy-benzylamino)-5H-benzo[c][1,8]naphthyridin-6-one]	
			> 90%	< 7.00	COc1ccccc1CNc1ccc2c(=O)[nH]c3ncccc3c2c1 [Example 34, 9-(2-Methoxy-benzylamino)-5H-benzo[c][1,8]naphthyridin-6-one]	
			> 90%	< 7.00	O=c1[nH]c2ncccc2c2cc(NCc3cccc(F)c3)ccc12 [Example 35, 9-(3-Fluoro-benzylamino)-5H-benzo[c][1,8]naphthyridin-6-one]	
> 90%	50 to 70%		50 to 70%	< 7.00	COc1ccc(CCNc2ccc3c(=O)[nH]c4ncccc4c3c2)cc1 [Example 36, 9-[2-(4-Methoxy-phenyl)-ethylamino]-5H-benzo[c][1,8]naphthyridin-6-one]	inhibition at 10 µM (CHK2): 70 to 90%
50 to 70%					COc1ccc(CNc2cnc3[nH]c(=O)c4ccccc4c3c2)cc1 [Example 37, 2-(4-Methoxy-benzylamino)-5H-benzo[c][1,8]naphthyridin-6-one]	
50 to 70%					COc1cccc(CNc2cnc3[nH]c(=O)c4ccccc4c3c2)c1 [Example 38, 2-(3-Methoxy-benzylamino)-5H-benzo[c][1,8]naphthyridin-6-one]	
50 to 70%					COc1ccccc1CNc1cnc2[nH]c(=O)c3ccccc3c2c1 [Example 39, 2-(2-Methoxy-benzylamino)-5H-benzo[c][1,8]naphthyridin-6-one]	
70 to 90%	> 90%	> 90%	50 to 70%		O=c1[nH]c2nccc(Nc3ccccc3)c2c2ccccc12 [Example 95, 1-Phenylamino-5H-benzo[c][1,8]naphthyridin-6-one]	inhibition at 1 µM (FYN): > 90%; inhibition at 1 µM (LCK; [1]): 50 to 70%; inhibition at 10 µM (LCK): 70 to 90%; inhibition at 10 µM (CHK2): 50 to 70%; inhibition at 1 µM (SRC): > 90%; inhibition at 10 µM (LYN): > 90%; inhibition at 1 µM (ABL): > 90%; inhibition at 10 µM (ABL): > 90%
> 90%	50 to 70%	> 90%	70 to 90%	< 7.00	COc1ccccc1Nc1ccnc2[nH]c(=O)c3ccccc3c12 [Example 114, 1-(2-Methoxy-phenylamino)-5H-benzo[c][1,8]naphthyridin-6-one]	inhibition at 1 µM (FYN): 70 to 90%; inhibition at 10 µM (LCK): 50 to 70%; inhibition at 10 µM (CHK2): 50 to 70%; inhibition at 1 µM (SRC): 70 to 90%; inhibition at 1 µM (LYN): 70 to 90%; inhibition at 10 µM (LYN): > 90%; inhibition at 1 µM (ABL): 70 to 90%; inhibition at 10 µM (ABL): > 90%
> 90%	50 to 70%	50 to 70%	> 90%	> 7.96	O=C(Nc1ccc(Nc2ccnc3[nH]c(=O)c4ccccc4c23)cc1)c1ccccc1 [Example 120, N-[4-(6-Oxo-5,6-dihydro-benzo[c][1,8]naphthyridin-1-ylamino)-phenyl]-benzamide]	inhibition at 1 µM (CHK2; [1]): > 90%; inhibition at 10 µM (CHK2): > 90%; inhibition at 10 µM (CK1d): 50 to 70%; inhibition at 1 µM (LYN): 50 to 70%; inhibition at 10 µM (LYN): 70 to 90%
50 to 70%	70 to 90%	70 to 90%			O=c1[nH]c2nccc(Nc3ccc(Oc4ccccc4)cc3)c2c2ccccc12 [Example 121, 1-(4-Phenoxy-phenylamino)-5H-benzo[c][1,8]naphthyridin-6-one]	inhibition at 10 µM (LCK): 70 to 90%; inhibition at 10 µM (LYN): 70 to 90%
					COc1ccc(Oc2ccnc3[nH]c(=O)c4ccccc4c23)cc1 [Example 125, 1-(4-Methoxy-phenoxy)-5H-benzo[c][1,8]naphthyridin-6-one]	inhibition at 1 µM (FYN): 70 to 90%; inhibition at 1 µM (ABL): 70 to 90%
70 to 90%	> 90%	> 90%		< 7.00	Clc1nc2nccc(Nc3ccccc3)c2c2ccccc12 [Example 139, (6-Chloro-benzo[c][1,8]naphthyridin-1-yl)-phenyl-amine]	inhibition at 10 µM (LCK): 70 to 90%; inhibition at 10 µM (CHK2): 50 to 70%; inhibition at 10 µM (LYN): > 90%; inhibition at 10 µM (ABL): > 90%
	50 to 70%	50 to 70%			Clc1nc2nccc(Oc3ccccc3)c2c2ccccc12 [Example 140, 6-Chloro-1-phenoxy-benzo[c][1,8]naphthyridine]	inhibition at 10 µM (ABL): 50 to 70%
50 to 70%					Nc1ccnc2[nH]c(=O)c3ccccc3c12 [Example 141, 1-Amino-5H-benzo[c][1,8]naphthyridin-6-one]	
